The source of these data is patent US11878981B2, “Substituted 1,2,4-oxadiazoles as TRPA1 inhibitors” (Boehringer Ingelheim International GmbH, priority 2021, dated 2024).

Series [1] can be described thus: Assay B: Microsomal clearance. Type of series: in vitro ADME, human. The settings on record: pooled liver microsomes, 37° C., 1 mg/ml protein, test compound 1 μM, NADPH. On the procedure:
Assay B: Microsomal Clearance:
The metabolic degradation of the test compound is assayed at 37° C. with pooled liver microsomes. The final incubation volume of 100 μl per time point contains TRIS buffer pH 7.6 at RT (0.1 M), magnesium chloride (5 mM), microsomal protein (1 mg/ml) and the test compound at a final concentration of 1 μM.
Following a short preincubation period at 37° C., the reactions are initiated by addition of beta-nicotinamide adenine dinucleotide phosphate, reduced form (NADPH, 1 mM) and terminated by transferring an aliquot into solvent after different time points (0, 5, 15, 30, 60 min). Additionally, the NADPH-independent degradation is monitored in incubations without NADPH, terminated at the last time point. The [%] remaining test compound after NADPH independent incubation is reflected by the parameter c (control) (metabolic stability). The quenched incubations are pelleted by centrifugation (10000 g, 5 min).
An aliquot of the supernatant is assayed by LC-MS/MS for the amount of parent compound. The half-life (t½ INVITRO) is determined by the slope of the semilogarithmic plot of the concentration-time profile.
The intrinsic clearance (CL_[…]) is calculated by considering the amount of protein in the incubation: CL _[…] [μl/min/mg protein]=(Ln 2/(half-life [min]*protein content [mg/ml]))*1000 CL_[…]_INVIVO [ml/min/kg]=(CL_[…] [μL/min/mg protein]×MPPGL [mg protein/g liver]×liver factor [g/kg bodyweight])/1000 Qh [%]=CL [ml/min/kg]/hepatic blood flow [ml/min/kg])
(§1) Hepatocellularity, human: 120×10e6 cells/g liver
(§2) Liver factor, human: 25.7 g/kg bodyweight
(§3) Blood flow, human: 21 ml/(min×kg)
For orientation: Liver microsomes are a subcellular fraction often used to study metabolism.

Series [2] concerns human hepatocytes. The series can be described thus: Assay C: Hepatocyte clearance. Format: in vitro ADME. As to conditions: hepatocyte suspension, 5% species serum, test compound 1 μM, six hours. How it is done:
Assay C: Hepatocyte Clearance
The metabolic degradation of the test compound is assayed in a hepatocyte suspension. Hepatocytes (cryopreserved) are incubated in Dulbecco's modified eagle medium (supplemented with 3.5 μg glucagon/500 mL, 2.5 mg insulin/500 mL and 3.75 mg/500 mL hydrocortison) containing 5% species serum.
The cells are incubated for six hours (incubator, orbital shaker) and samples ([…]) are taken at 0, 0.5, 1, 2, 4 and 6 hours. Samples are transferred into acetonitrile and pelleted by centrifugation (5 min). The supernatant is transferred to a new 96-deepwell plate, evaporated under nitrogen and resuspended.
Decline of Parent Compound is Analyzed by HPLC-MS/MS
CLint is calculated as follows CL_[…]=Dose/AUC=(C0/CD)/(AUD+clast/k)×1000/60. C0: initial concentration in the incubation [μM], CD: cell density of vital cells [10e6 cells/mL], AUD: area under the data [μM×h], clast: concentration of last data point [μM], k: slope of the regression line for parent decline [h−1].
The calculated in vitro hepatic intrinsic clearance can be scaled up to the intrinsic in vivo hepatic Clearance and used to predict hepatic in vivo blood clearance (CL) by the use of a liver model (well stirred model). CL_[…]_INVIVO [ml/min/kg]=(CL_[…] [μL/min/10e6cells]×hepatocellularity [10e6 cells/g liver]×liver factor [g/kg bodyweight])/1000 CL [ml/min/kg]=CL_[…]_INVIVO [ml/min/kg]×hepatic blood flow [ml/min/kg]/(CL_[…]_INVIVO [ml/min/kg]+hepatic blood flow [ml/min/kg]) Qh [%]=CL [ml/min/kg]/hepatic blood flow [ml/min/kg])
as §1, §2, §3

For series [3], the target named is T1, human TRPA1 ion channel (Homo sapiens, UniProt O75762).
T1 construct: host or cells: HEK293
T1 sequence (O75762 whole entry): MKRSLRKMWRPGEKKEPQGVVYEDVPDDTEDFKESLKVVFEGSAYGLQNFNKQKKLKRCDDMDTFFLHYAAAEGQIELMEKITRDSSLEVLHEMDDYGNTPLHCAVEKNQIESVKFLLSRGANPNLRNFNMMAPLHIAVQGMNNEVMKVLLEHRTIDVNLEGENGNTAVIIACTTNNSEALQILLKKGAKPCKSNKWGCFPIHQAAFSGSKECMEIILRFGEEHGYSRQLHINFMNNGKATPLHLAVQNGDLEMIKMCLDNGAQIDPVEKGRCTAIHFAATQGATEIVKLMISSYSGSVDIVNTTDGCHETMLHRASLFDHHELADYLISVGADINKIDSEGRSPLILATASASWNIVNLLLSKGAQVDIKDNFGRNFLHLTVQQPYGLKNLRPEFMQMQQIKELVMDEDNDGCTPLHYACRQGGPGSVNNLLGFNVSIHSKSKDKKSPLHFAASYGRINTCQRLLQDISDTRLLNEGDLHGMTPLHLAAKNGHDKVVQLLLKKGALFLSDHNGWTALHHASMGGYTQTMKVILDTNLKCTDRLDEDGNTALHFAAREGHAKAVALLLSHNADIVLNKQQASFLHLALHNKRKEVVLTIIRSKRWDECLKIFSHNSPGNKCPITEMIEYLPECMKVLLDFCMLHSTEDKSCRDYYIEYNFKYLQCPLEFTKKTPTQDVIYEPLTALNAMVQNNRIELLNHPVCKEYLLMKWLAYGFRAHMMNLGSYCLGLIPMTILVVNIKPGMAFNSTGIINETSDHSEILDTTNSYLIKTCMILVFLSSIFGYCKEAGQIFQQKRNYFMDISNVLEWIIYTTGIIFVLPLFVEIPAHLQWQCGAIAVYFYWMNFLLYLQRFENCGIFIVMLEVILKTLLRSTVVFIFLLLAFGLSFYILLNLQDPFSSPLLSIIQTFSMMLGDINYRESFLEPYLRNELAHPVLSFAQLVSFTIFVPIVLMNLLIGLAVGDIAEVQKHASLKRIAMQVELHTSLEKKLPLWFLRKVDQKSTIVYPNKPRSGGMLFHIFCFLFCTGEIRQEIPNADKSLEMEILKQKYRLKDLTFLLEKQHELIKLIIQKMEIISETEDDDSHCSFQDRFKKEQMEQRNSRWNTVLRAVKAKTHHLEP
The series can be described thus: Assay A: TRPA1 assay (in vitro TRPA1 cell assay, FLIPR calcium). Type of series: cell-based. The settings on record: read-out: hTRPA1 IC50. How it is done: A human HEK293 cell line over-expressing the human TRPA1 ion channel (Perkin Elmer, Product No. AX-004-PCL) is used as a test system for compound efficacy and potency. Compound activity is determined by measuring the effect of compounds on intracellular calcium concentration induced by AITC (Allylisothiocyanat) agonism in a FLIPRtetra system (Molecular Devices).
The cells are obtained as frozen cells in cryo-vials and stored until use at −150° C.
Cells are grown in culture medium (MEM/EBSS medium with 10% FCS and 0.4 mg/ML Geneticin). […] For sub-culturing cells are detached from flasks by Versene. At the day before the assay, cells are detached, washed twice with medium (MEM/EBSS medium with 10% FCS) and 20000 cells in 20 μl/well are seeded to Poly D-Lysin biocoated 384-well plates (black, clear bottom, Cat. 356697) from Corning. Plates are incubated for 24 hours at 37° C./5% CO2 before use in the assay.
The test compounds are dissolved in 100% DMSO at a concentration of 10 mM and in a first step diluted in DMSO to a concentration of 5 mM, followed by serial dilution steps in 100% DMSO. Dilution factor and number of dilution steps may vary according to needs. Typically 8 different concentrations by 1:5 dilutions are prepared, further intermediate dilutions (1:20) of the substances are carried out with HBSS/HEPES buffer (1×HEPES, Cat. 14065 from Gibco, 20 mM HEPES, Cat. 83264 from SIGMA, 0.1% BSA Cat. 11926 from Invitrogen, pH 7.4
At the assay day cells are washed 3× with assay puffer, 20 μL buffer remaining in the wells after washing. 10 μL Ca6 kit (Cat. R8191 MolecularDevices) loading buffer in HBSS/HEPES is added to the cells and the plates are incubated with lid for 120 minutes at 37°/5% CO2. 10 μL of compound or controls in HBSS/HEPES buffer/5% DMSO from the intermediate dilution plate are carefully added to the wells. […] Finally 10 μL of the agonist AITC 50 μM dissolved in HBSS/HEPES buffer/0.05% DMSO (final concentration 10 μM) is added to the wells followed by an additional read on the FLIPRtetra device for 10 minutes. The area under the signal curve (AUC) after AITC addition is used for IC50/% inhibition calculations
Data Evaluation and Calculation:
Each assay microtiter plate contains wells with vehicle (1% DMSO) controls instead of compound as controls for AITC induced luminescence (100% CTL; high controls) and wells with vehicle controls without AITC as controls for non-specific changes in luminescence (0% CTL; low controls).
The analysis of the data is performed by the calculation of the area under signal curve of the individual wells. Based on this values the % value for the measurement of each substance concentration is calculated (AUC(sample)−AUC(low))*100/(AUC(high)−AUC(low)) using MegaLab software (in house development). The IC50 values are calculated from the % control values using MegaLab software. Calculation: [y=(a−d)/(1+(x/c)^b)+d], a=low value, d=high value; x=conc M; c=IC50 M; b=hill; y=% ctrl

As for `Cn1c(=O)n(C)c2c(=O)n(Cc3nc(C[C@H](O)c4ccc(Cl)cc4)no3)ncc21` [Example 1, 5-({3-[(2S)-2-(4-chlorophenyl)-2-hydroxyethyl]-1,2,4-oxadiazol-5-yl}methyl)-1,3-dimethyl-1H,2H,3H,4H,5H-imidazo[4,5-d]pyridazine-2,4-dione], the “human LM [% Qh]” value in series [1] is reported as below 23 % Qh. Also, the “human Hepatocytes [% Qh]” value in series [2] is recorded as 10 % Qh. In series [3], the IC50 is 22 nM.

For the compound `Cc1ccc([C@@H](O)Cc2noc(Cn3ncc4c(c3=O)n(C)c(=O)n4C)n2)cc1` [Example 2], the “human LM [% Qh]” value in series [1] is given as below 23 % Qh. The “human Hepatocytes [% Qh]” value in series [2] was determined as 14 % Qh. The IC50 in series [3] is 47 nM.

Consider `Cn1c(=O)n(C)c2c(=O)n(Cc3nc(C[C@H](O)c4ccc(F)cc4)no3)ncc21` [Example 3], for which the “human LM [% Qh]” value in series [1] is below 23 % Qh. The “human Hepatocytes [% Qh]” value in series [2] is on record as 13 % Qh. Moreover, the IC50 in series [3] amounted to 147 nM.

Take `Cn1c(=O)n(C)c2c(=O)n(Cc3nc(C[C@H](O)c4cc5ccccc5o4)no3)ncc21` [Example 4]: the “human LM [% Qh]” value in series [1] was below 23 % Qh. For the same compound, the “human Hepatocytes [% Qh]” value in series [2] is 9 % Qh. Besides, in series [3], the IC50 worked out at 158 nM.

On to `Cn1cnc2cnn(Cc3nc(C[C@H](O)c4ccc(Cl)cc4)no3)c(=O)c21` [Example 5], for which the “human LM [% Qh]” value in series [1] is reported as below 23 % Qh. Moreover, the “human Hepatocytes [% Qh]” value in series [2] was 23 % Qh. In addition, the IC50 in series [3] turned out to be 60 nM.

Take `Cc1ccc([C@@H](O)Cc2noc(Cn3ncc4ncn(C)c4c3=O)n2)cc1` [Example 6]: the “human LM [% Qh]” value in series [1] is on record as below 23 % Qh. Besides, the “human Hepatocytes [% Qh]” value in series [2] was found to be 9 % Qh. For the same compound, the IC50 in series [3] came to 96 nM.

In the case of `Cn1cnc2cnn(Cc3nc(C[C@H](O)c4ccc5c(c4)OCO5)no3)c(=O)c21` [Example 7], the “human LM [% Qh]” value in series [1] was below 23 % Qh. For the same compound, the “human Hepatocytes [% Qh]” value in series [2] was determined as 9 % Qh. Moreover, in series [3], the half-inhibitory concentration (IC50) stood at 204 nM.

For `Cn1cnc2cnn(Cc3nc(C[C@H](O)c4ccc(Br)cc4)no3)c(=O)c21` [Example 8, 6-({3-[(2S)-2-(4-bromophenyl)-2-hydroxyethyl]-1,2,4-oxadiazol-5-yl}methyl)-1-methyl-1H,6H,7H-imidazo[4,5-d]pyridazin-7-one], the “human LM [% Qh]” value in series [1] is below 23 % Qh. Also, in series [2], the “human Hepatocytes [% Qh]” value is given as 39 % Qh. In addition, the IC50 in series [3] came to 41 nM.

For `Cn1cnc2cnn(Cc3nc(C[C@H](O)c4cc5ccc(F)cc5s4)no3)c(=O)c21` [Example 9], the “human LM [% Qh]” value in series [1] is 41 % Qh. In series [2], the “human Hepatocytes [% Qh]” value is recorded as 43 % Qh. Further, in series [3], the IC50 was 9 nM.

`Cn1cnc2cnn(Cc3nc(C[C@H](O)c4cc5cc(F)ccc5o4)no3)c(=O)c21` [Example 10]: in series [1], the “human LM [% Qh]” value is reported as below 23 % Qh. Also, the “human Hepatocytes [% Qh]” value in series [2] turned out to be 29 % Qh. The IC50 in series [3] turned out to be 13 nM.

Consider `Cn1cnc2cnn(Cc3nc(C[C@H](O)c4cc5cc(Cl)ccc5o4)no3)c(=O)c21` [Example 11], for which, in series [1], the “human LM [% Qh]” value is listed as 30 % Qh. In series [2], the “human Hepatocytes [% Qh]” value amounted to 35 % Qh. Also, the IC50 in series [3] is 19 nM.

As to `Cn1cnc2cnn(Cc3nc(C[C@H](O)c4cc5ccccc5s4)no3)c(=O)c21` [Example 12], in series [1], the “human LM [% Qh]” value is given as 31 % Qh. In addition, the “human Hepatocytes [% Qh]” value in series [2] is given as 42 % Qh. Besides, the IC50 in series [3] turned out to be 24 nM.

For `Cn1c(=O)n(C)c2c(=O)n(Cc3nc(C[C@H](O)c4cc5ccc(F)cc5s4)no3)ncc21` [Example 13], the “human LM [% Qh]” value in series [1] came out at 36 % Qh. The IC50 in series [3] amounted to 9 nM.

`Cn1c(=O)n(C)c2c(=O)n(Cc3nc(C[C@H](O)c4cc5ccccc5s4)no3)ncc21` [Example 14]: in series [1], the “human LM [% Qh]” value is below 23 % Qh. Moreover, in series [2], the “human Hepatocytes [% Qh]” value is reported as 43 % Qh. Besides, in series [3], the IC50 was 19 nM.

Take `Cn1c(=O)n(C)c2c(=O)n(Cc3nc(C[C@H](O)c4cc5cc(Cl)ccc5o4)no3)ncc21` [Example 15]: in series [1], the “human LM [% Qh]” value was below 23 % Qh. Moreover, in series [2], the “human Hepatocytes [% Qh]” value was found to be 12 % Qh. Besides, the half-inhibitory concentration (IC50) in series [3] stood at 47 nM.

Turning to `Cn1c(=O)n(C)c2c(=O)n(Cc3nc(C[C@H](O)c4cc5cc(F)ccc5o4)no3)ncc21` [Example 16], the “human LM [% Qh]” value in series [1] is listed as below 23 % Qh. Further, the “human Hepatocytes [% Qh]” value in series [2] worked out at 14 % Qh. For the same compound, in series [3], the IC50 is 79 nM.

In general, IC50 refers to the concentration needed to halve the response being measured.
